According to US20210106566A1, “PHARMACEUTICAL COMPOSITION FOR TREATING AND/OR PREVENTING PERIPHERAL NEUROPATHY OR SPINAL CORD INJURY” (NATIONAL UNIVERSITY CORPORATION NAGOYA UNIVERSITY, priority 2015, published 2021):

How the values were obtained:
[1] = tested on: Bdnf, Ngf, Ntf4, Ntrk1, Ntrk2, Map2, Mapt, and Gap43; experiment: Real-time RT-PCR of genes associated with neurite outgrowth in primary motor neurons; type: cell-based, mouse
From the text: Total RNA was isolated, using Trizol (Thermo Fisher Scientific), from primary motor neurons cultured with 0, 1, or 10 μmol/L zonisamide. Similarly, total RNA was isolated from sciatic nerve segments with a length of 3 mm or from tibialis anterior muscle. Single-stranded cDNA was synthesized using ReverTra Ace (Toyobo). The mRNA expression levels of Bdnf, Ngf, Ntf4, Ntrk1, Ntrk2, Map2, Mapt, and Gap43 were quantified using LightCycler 480 Real-Time PCR (Roche) and SYBR Green (Takara). The mRNA levels were normalized with the expression level of Gapdh.

[2] = tested on: severely crushed spinal cord model mice; experiment: Severely crushed spinal cord model mice: rotarod test; type: in vivo, mouse
From the text: Female C57BL/6J mice (8 weeks old; 19.5-22.0 g) were purchased from Charles River. The female C57BL/6J mice were anesthetized by intraperitoneally administering pentobarbital sodium and underwent back incision under a sterile condition to perform laminectomy at the 10th thoracic vertebra. The spinal cord was crushed at 100 kdyn using a tip with a diameter of 1.35 mm on IH Spinal Cord Impactor. After the occurrence of hematoma in the spinal cord was confirmed under a microscope, the wound was closed and 1 ml of physiological saline was subcutaneously injected into the posterior neck region to prevent dehydration. The mice with spinal cord injury were separated into two groups in a blinded fashion. […] One day after surgery, motor function of mice in both groups was assessed using BMS score (Basso mouse scale; Li et. al. J Neurosurg Spine 4: 165-173 (2006)) in a blinded fashion to select the mice with BMS score of 1 or lower and consider them as severely crushed spinal cord model mice. […] The latency until a mouse fell off the rotarod (holding time, in seconds; a maximum latency of 300 seconds) was measured in the accelerating rotation mode with an initial speed of 2 rpm, an accelerated speed of 5 rpm/min, and a maximum speed of 40 rpm. The latency was measured 3 times at an interval of 10 minutes and the three measurements were averaged for assessment (FIG. 15).

[3] = tested on: Bdnf, Ngf, Ntf4, Ntrk1, Ntrk2, Map2, Mapt, and Gap43; experiment: Severely crushed spinal cord model mice: mRNA in spinal cord segments; type: in vivo, mouse; conditions: spinal cord segment distal to the damaged area, 28 days after surgery, versus control group
From the text: Severely crushed spinal cord model mice were produced according to the “Method of producing severely crushed spinal cord model mice” as described in Example 8. Spinal cords were isolated from four mice in the zonisamide administration group and four mice in the control group 28 days after surgery and the segment of the damaged area with a length of 5 mm and the segment with a length of 5 mm distal to the damaged area were collected (FIG. 16). Total RNA was isolated using Trizol (Thermo Fisher Scientific) from each spinal cord segment with a length of 5 mm. Single-stranded cDNA was synthesized using ReverTra Ace (Toyobo). The mRNA expression levels of neurotrophic factors, Bdnf, Ngf, Ntf4, Ntrk1, Ntrk2, Map2, Mapt, and Gap43 were quantified using LightCycler 480 Real-Time PCR (Roche) and SYBR Green (Takara) (FIGS. 17, 18, 19, 20, 21, 22, 23, and 24). The mRNA levels were normalized with the expression level of GAPDH.

[4] = 2 and 3 days after zonisamide addition

NS(=O)(=O)Cc1noc2ccccc12 [Zonisamide, 3-sulfamoylmethyl-1,2-benzisoxazole]
mRNA level of GAP43 [1]: not increased until day 3
mRNA level of MAP2 [1]: not increased until day 3
mRNA level of Mapt [1]: not increased until day 3
mRNA level of Ntrk1 [1]: increased
mRNA level of Ntrk2 [1]: increased
mRNA level of BDNF [1, 4]: increased
mRNA level of NGF [1, 4]: increased
mRNA level of NTF4 [1, 4]: increased
holding time on rotarod ([2]; day 28 after surgery, 30 mg/kg/day intragastrically): 135.3 ± 16.4 s
holding time on rotarod compared to the control group ([2]; days 21 and 28 after surgery): longer
expression level of MAP2 gene [3]: significantly increased
expression level of NGF [3]: seemed to be increased
expression level of Tau gene [3]: significantly increased
